Test results reported in patent publication US20260274857A1, “CRYSTAL OF DIHYDROPYRIDINONE DERIVATIVE OR SOLVATE THEREOF” (Shionogi & Co., Ltd., priority 2022, published 2026).
Blank lines part the entries; values can stand above or below the compound they belong to.

How the values were obtained:
[1] = Moisture adsorption/desorption isotherm measurement (DVS); format: physicochemical; details: for difference in water content between 0% RH and 95% RH: 25° C.
Text: The moisture adsorption/desorption isotherm measurement is a measurement method for measuring the adsorption and desorption behavior of moisture by measuring a weight change in a solid as a measurement target under each relative humidity condition.
As a basic measurement method, based on the dry weight at 0% RH (relative humidity 0%), the relative humidity is increased every 5% or 10%, and after the weight is stabilized at each relative humidity, the amount of adsorbed water can be determined from the weight increase from the reference value. Similarly, the desorption amount of water can be measured by decreasing the relative humidity every 5% or 10% from 100% RH or 95% RH.
By plotting the value of the weight change at each relative humidity, an adsorption/desorption isotherm can be obtained.
Sorption and desorption of adhesion water and crystal water are affected by particle size, crystallinity, crystal habit, and the like, so that the measurement results may slightly change.
The crystals and amorphous substances obtained in each Example were weighed in an aluminum pan, and allowed to stand at 25° C. and a relative humidity of 0%. The measurement was started after the compound was sufficiently dried and the weight was stabilized, and the weight when the relative humidity changed from 0% to 95% by 5% was recorded. Next, the weight when the relative humidity changed from 95% to 0% by 5% was recorded.
Device: DVS Advantage manufactured by Surface Measurement Systems

[2] = Solid stability test: storage stability (amount of analogous substance by HPLC, appearance); format: physicochemical; details: temperature, temperature and humidity conditions, light irradiation; analogous substance by HPLC and appearance
Method: For the solid stability of the crystal of the compound represented by Formula (I) obtained in Example 1 and the crystal of the compound represented by Formula (II) obtained in Example 16, the chemical stability under temperature, temperature and humidity conditions, and light irradiation was evaluated. The proportion (%) of the analogous substance produced by an HPLC method and the change in appearance were evaluated.
About 10 mg of the crystal was accurately weighed in a 2 mL glass container with a polyethylene stopper. After the glass container was closed, the glass container was stored at 40° C. or 60° C. for 2 weeks, 1 month, 2 months, 3 months, or 6 months. A sample stored at 40° C. is referred to as a 40° C. hermetically sealed product, and a sample stored at 60° C. is referred to as a 60° C. hermetically sealed product. In a state where the glass container was opened, the glass container was stored at a relative humidity of 75±5% at 40° C. or a relative humidity of 89±5% for 2 weeks, 1 month, 2 months, 3 months or 6 months, or in the presence of silica gel at 40° C. for 1 month, 2 months, 3 months or 6 months. A sample stored at 40° C. and a relative humidity of 75±5% or 89±5% is referred to as a 40° C. and 75% relative humidity (also referred to as 40±2° C./75±5% RH) or 40° C. and 89% relative humidity (also referred to as 40±2° C./89% RH) stored product, and a sample stored in the presence of silica gel at 40° C. is referred to as a 40° C. stored product. The −40° C. hermetically sealed product was used as a standard product.
The amount of the analogous substance was measured by an area percentage method by the HPLC method under the following conditions.
HPLC Conditions 1 were used for the crystal and amorphous substance of the compound represented by Formula (I) obtained in Example 1, and HPLC conditions 2 were used for the crystal of the compound represented by Formula (II) obtained in Example 16.
• Detector: ultraviolet absorptiometer (measurement wavelength: 260 nm) • Column: YMC-Triart C18 ExRS, S-1.9 μm, 3.0×100 mm • Column temperature: constant temperature at near 40° C. • Mobile phase A: 0.1% formic acid aqueous solution • Mobile phase B: acetonitrile • Flow rate: about 0.6 mL/min • Injection amount: 3 μL • Sample cooler temperature: about 6° C. • Feed of mobile phase: The mixing ratio of mobile phase A and mobile phase B was changed as shown in Table 18 to control concentration gradient.
Column: Cortecs (2.7 μm 3.0×100 mm)
Column temperature: 40° C.
UV detection wavelength: 254 nm

Moisture adsorption amount (%) ([1]; relative humidity 0.0%): 0.002%
Moisture desorption amount (%) ([1]; relative humidity 0.0%): −0.433%
Moisture adsorption amount (%) ([1]; relative humidity 5.0%): 0.676%
Moisture desorption amount (%) ([1]; relative humidity 5.0%): 0.606%
Moisture adsorption amount (%) ([1]; relative humidity 10.0%): 1.020%
Moisture desorption amount (%) ([1]; relative humidity 10.0%): 1.196%
Moisture adsorption amount (%) ([1]; relative humidity 15.0%): 1.312%
Moisture desorption amount (%) ([1]; relative humidity 15.0%): 1.674%
Moisture adsorption amount (%) ([1]; relative humidity 20.0%): 1.574%
Moisture desorption amount (%) ([1]; relative humidity 20.0%): 2.131%
Moisture adsorption amount (%) ([1]; relative humidity 25.0%): 1.807%
Moisture desorption amount (%) ([1]; relative humidity 25.0%): 2.495%
Moisture adsorption amount (%) ([1]; relative humidity 30.0%): 2.015%
Moisture desorption amount (%) ([1]; relative humidity 30.0%): 2.831%
Moisture adsorption amount (%) ([1]; relative humidity 35.0%): 2.213%
Moisture desorption amount (%) ([1]; relative humidity 35.0%): 3.157%
Moisture adsorption amount (%) ([1]; relative humidity 40.0%): 2.414%
Moisture desorption amount (%) ([1]; relative humidity 40.0%): 3.423%
Moisture adsorption amount (%) ([1]; relative humidity 45.0%): 2.589%
Moisture desorption amount (%) ([1]; relative humidity 45.0%): 3.699%
Moisture adsorption amount (%) ([1]; relative humidity 50.0%): 2.780%
Moisture desorption amount (%) ([1]; relative humidity 50.0%): 3.913%
Moisture adsorption amount (%) ([1]; relative humidity 55.0%): 2.976%
Moisture desorption amount (%) ([1]; relative humidity 55.0%): 4.135%
Moisture adsorption amount (%) ([1]; relative humidity 60.0%): 3.185%
Moisture desorption amount (%) ([1]; relative humidity 60.0%): 4.411%
Moisture adsorption amount (%) ([1]; relative humidity 65.0%): 3.384%
Moisture desorption amount (%) ([1]; relative humidity 65.0%): 4.683%
Moisture adsorption amount (%) ([1]; relative humidity 70.0%): 3.623%
Moisture desorption amount (%) ([1]; relative humidity 70.0%): 5.151%
Moisture adsorption amount (%) ([1]; relative humidity 75.0%): 3.914%
Moisture desorption amount (%) ([1]; relative humidity 75.0%): 5.420%
Moisture adsorption amount (%) ([1]; relative humidity 80.0%): 4.320%
Moisture desorption amount (%) ([1]; relative humidity 80.0%): 5.865%
Moisture adsorption amount (%) ([1]; relative humidity 85.0%): 4.850%
Moisture desorption amount (%) ([1]; relative humidity 85.0%): 6.219%
Moisture adsorption amount (%) ([1]; relative humidity 90.0%): 5.604%
Moisture desorption amount (%) ([1]; relative humidity 90.0%): 6.599%
Moisture adsorption amount (%) ([1]; relative humidity 95.0%): 6.974%
Moisture desorption amount (%) ([1]; relative humidity 95.0%): 6.974%
Compound: Cc1ccc(-n2nc3c(c2NC(=O)CS(C)(=O)=O)C(=O)NC2(CCOc4cc(F)cc(F)c42)C3)nc1 (stereo not drawn)

difference in water content between 0% RH and 95% RH ([1]; DVS): about 2.6%
Compound: CS(=O)(=O)CC(=O)Nc1c2c(nn1CCCOC(F)(F)F)C[C@@]1(CCOc3cc(OCC(F)(F)F)ccc31)NC2=O [amorphous substance of the compound represented by Formula (]

hygroscopicity (in words) ([1]; DVS, 0% to 95% RH): no problem in hygroscopicity
difference in water content between 0% RH and 95% RH ([1]; DVS): about 0.4%
Moisture adsorption amount (%) ([1]; relative humidity 0.0%): 0.0000%
Moisture desorption amount (%) ([1]; relative humidity 0.0%): 0.0690%
Moisture adsorption amount (%) ([1]; relative humidity 5.0%): 0.0149%
Moisture desorption amount (%) ([1]; relative humidity 5.0%): 0.1029%
Moisture adsorption amount (%) ([1]; relative humidity 10.0%): 0.0250%
Moisture desorption amount (%) ([1]; relative humidity 10.0%): 0.1252%
Moisture adsorption amount (%) ([1]; relative humidity 15.0%): 0.0352%
Moisture desorption amount (%) ([1]; relative humidity 15.0%): 0.1435%
Moisture adsorption amount (%) ([1]; relative humidity 20.0%): 0.0494%
Moisture desorption amount (%) ([1]; relative humidity 20.0%): 0.1610%
Moisture adsorption amount (%) ([1]; relative humidity 25.0%): 0.0623%
Moisture desorption amount (%) ([1]; relative humidity 25.0%): 0.1773%
Moisture adsorption amount (%) ([1]; relative humidity 30.0%): 0.0758%
Moisture desorption amount (%) ([1]; relative humidity 30.0%): 0.1922%
Moisture adsorption amount (%) ([1]; relative humidity 35.0%): 0.0893%
Moisture desorption amount (%) ([1]; relative humidity 35.0%): 0.2077%
Moisture adsorption amount (%) ([1]; relative humidity 40.0%): 0.1042%
Moisture desorption amount (%) ([1]; relative humidity 40.0%): 0.2206%
Moisture adsorption amount (%) ([1]; relative humidity 45.0%): 0.1204%
Moisture desorption amount (%) ([1]; relative humidity 45.0%): 0.2348%
Moisture adsorption amount (%) ([1]; relative humidity 50.0%): 0.1387%
Moisture desorption amount (%) ([1]; relative humidity 50.0%): 0.2497%
Moisture adsorption amount (%) ([1]; relative humidity 55.0%): 0.1563%
Moisture desorption amount (%) ([1]; relative humidity 55.0%): 0.2659%
Moisture adsorption amount (%) ([1]; relative humidity 60.0%): 0.1746%
Moisture desorption amount (%) ([1]; relative humidity 60.0%): 0.2822%
Moisture adsorption amount (%) ([1]; relative humidity 65.0%): 0.2016%
Moisture desorption amount (%) ([1]; relative humidity 65.0%): 0.3038%
Moisture adsorption amount (%) ([1]; relative humidity 70.0%): 0.2334%
Moisture desorption amount (%) ([1]; relative humidity 70.0%): 0.3289%
Moisture adsorption amount (%) ([1]; relative humidity 75.0%): 0.2619%
Moisture desorption amount (%) ([1]; relative humidity 75.0%): 0.3464%
Moisture adsorption amount (%) ([1]; relative humidity 80.0%): 0.2937%
Moisture desorption amount (%) ([1]; relative humidity 80.0%): 0.3627%
Moisture adsorption amount (%) ([1]; relative humidity 85.0%): 0.3268%
Moisture desorption amount (%) ([1]; relative humidity 85.0%): 0.3782%
Moisture adsorption amount (%) ([1]; relative humidity 90.0%): 0.3695%
Moisture desorption amount (%) ([1]; relative humidity 90.0%): 0.4013%
Moisture adsorption amount (%) ([1]; relative humidity 95.0%): 0.4243%
Moisture desorption amount (%) ([1]; relative humidity 95.0%): 0.4243%
Compound: CS(=O)(=O)CC(=O)Nc1c2c(nn1CCCOC(F)(F)F)C[C@@]1(CCOc3cc(OCC(F)(F)F)ccc31)NC2=O [crystal of the compound represented by Formula (II) obtained]
solid stability (in words) [2]: excellent in solid stability under any conditions
